Assay: in vitro
Conditions: human, hela cells, % viability

Row | Structure (SMILES) | viability at 28.5 h, 10 µM [%] | viability at 28.5 h, 10 µM (bulk resorufin, single well) [%]
1 | O=C(O)CSCC(=O)c1ccccc1 [CBK262140] | 93.1 | 
2 | Cc1noc(NS(=O)(=O)c2ccc(NC(=O)COc3ccc(Cl)cc3Cl)cc2)c1C [CBK262142] | 89.3 | 
3 | O=C(/C(=C\c1ccc([N+](=O)[O-])cc1)n1cncn1)c1ccc(Cl)cc1Cl [CBK262145] | 90.3 | 
4 | CCOc1cc(/C=N\NC(=O)CNc2ccccc2C)cc(Br)c1O [CBK262151] | 86.5 | 
5 | Cc1cccnc1NC(=O)COc1ccc(Cl)cc1Cl [CBK262154] | 86.5 | 
6 | Cc1cc(I)ccc1S(=O)(=O)NCc1ccccn1 [CBK262155] | 106 | 
7 | O=C(NCc1ccccn1)C(=O)N/N=C/c1ccccc1O [CBK262157] | 85.4 | 
8 | COc1ccc(CNC(=O)C(=O)NCc2ccccc2)cc1 [CBK262158] | 103 | 
9 | O=[N+]([O-])c1ccc(COc2cccc(/C=N/Nc3nc4ccccc4s3)c2)cc1 [CBK262160] | 87.8 | 
10 | O=c1c(-c2nc3ccccc3s2)coc2c(CN3CCCCC3)c(O)ccc12 [CBK262161] | 106 | 
11 | CCOc1ccc2nc(NS(=O)(=O)c3ccc4c5c(cccc35)C(=O)N4)sc2c1 [CBK262162] | 100 | 
12 | O=C(N/N=C/c1cc(Br)cc(Br)c1O)C(Oc1ccccc1)Oc1ccccc1 [CBK262164] | 95.6 | 
13 | COc1cc(/C=C2/S/C(=N\c3ccccc3)NC2=O)ccc1OCc1ccccc1[N+](=O)[O-] [CBK262165] | 88.4 | 
14 | Cc1ccc(N(CC(=O)N/N=C2\C(=O)Nc3ccccc32)S(=O)(=O)c2ccccc2)cc1 [CBK262169] | 105 | 
15 | O=C(CN1C(=O)/C(=C/c2ccccc2)SC1=S)Nc1cccc(C(=O)O)c1 [CBK262171] | 86.9 | 
16 | O=C(O)c1ccc(/C=C/C(=O)c2ccc3c(c2)OCCO3)cc1 [CBK262173] | 89.1 | 
17 | O=C(NC(NCc1ccco1)C(Cl)(Cl)Cl)c1ccc(Br)cc1 (stereo not drawn) [CBK262174] | 89 | 
18 | NS(=O)(=O)c1ccc(NC(=S)NC(=O)/C=C/c2ccc([N+](=O)[O-])cc2)cc1 [CBK262176] | 99.2 | 
19 | Cc1ccc(NC(=O)CC(=O)NCCN2CCOCC2)cc1 [CBK262179] | 92.8 | 
20 | COc1cc(/C=C2/SC(=N)NC2=O)ccc1OCc1ccccc1[N+](=O)[O-] [CBK262181] | 85.4 | 
21 | Cc1ccc(N(CC(=O)N/N=C/c2ccc(Cl)cc2)S(=O)(=O)c2ccccc2)cc1 [CBK262182] | 98.3 | 

Row | Structure (SMILES) | viability at 28.5 h, 10 µM [%] | viability at 28.5 h, 10 µM (bulk resorufin, single well) [%]
22 | Cc1cccnc1NC(=O)c1cccc(C(=O)Nc2ncccc2C)c1 [CBK262184] | 88.6 | 
23 | O=C(N/N=C/c1ccc(C(=O)O)cc1)C(=O)Nc1cccc(Br)c1 [CBK262185] | 88.6 | 
24 | Nc1nnnn1CC(=O)N/N=C/c1cc2c(cc1[N+](=O)[O-])OCO2 [CBK262187] | 117 | 
25 | O=C(N/N=C1/CN2CCC1CC2)c1cccc(O)c1 [CBK262188C] |  | 93.5
26 | CN(C)CCCNC(=O)COc1ccccc1 [CBK262189] | 88 | 
27 | O=C(CCCN1C(=O)c2cccc3cccc(c23)C1=O)NCc1cccnc1 [CBK262190] | 73.9 | 
28 | O=C(O)c1ccc(N2C(=O)CC(S/C(=N\c3ccccc3)Nc3ccccc3)C2=O)cc1 (stereo not drawn) [CBK262191] | 107 | 
29 | Cc1ccc(N(CC(=O)NN=C2CCCCCCCCCCC2)S(=O)(=O)c2ccccc2)cc1 [CBK262192] | 105 | 
30 | CC(=O)Nc1ccc(S(=O)(=O)N2CCN(CCO)CC2)cc1 [CBK262196] | 95.1 | 
31 | COc1cccc(CNCc2ccccc2[N+](=O)[O-])c1OC [CBK262198] | 98 | 
32 | Cc1ccc(N(CC(=O)Nc2cccc3cccnc23)S(=O)(=O)c2ccc(C)cc2)cc1 [CBK262201] | 104 | 
33 | COc1cccc(/C=C2\SC(=S)N(CC(=O)NNC(=O)c3ccccc3O)C2=O)c1 [CBK262202] | 91.1 | 
34 | O=C(NCc1ccccn1)C(=O)N/N=C/c1ccccc1[N+](=O)[O-] [CBK262204] | 96.4 | 
35 | Cc1ccc(C)c(S(=O)(=O)NCCCn2ccnc2)c1 [CBK262205] | 109 | 
36 | Cc1cc(NCc2ccccc2)nc2ccccc12 [CBK262206] | 93.5 | 
37 | COc1ccccc1N1CCN(CCc2nnc(S)n2-c2ccccc2)CC1 [CBK262212] | 102 | 
38 | C[N+]1(c2ccccc2)CCC(N)=N1 (stereo not drawn) [CBK262213I] | 91.8 | 
39 | O=C(O)CSc1nccn1Cc1ccccc1 [CBK262215] | 103 | 
40 | COc1ccc(CCNCc2ccc([N+](=O)[O-])cc2)cc1OC [CBK262217] |  | 115
41 | CC(Oc1cccc2ccccc12)C(=O)N/N=C/c1ccc(Cl)cc1Cl (stereo not drawn) [CBK262218] | 97 | 
42 | CCN(CC)CCOc1c(C)cc(Cl)cc1C [CBK262219] | 97 | 

Row | Structure (SMILES) | viability at 28.5 h, 10 µM [%] | viability at 28.5 h, 10 µM (bulk resorufin, single well) [%]
43 | COc1cc(/C=N/NC(=O)C(=O)Nc2ccc(C)c(C)c2)ccc1O [CBK262225] | 86 | 
44 | CN1CCN(C(=O)c2ccc(Cl)c(S(=O)(=O)N3CCCCC3)c2)CC1 [CBK262228] | 94.7 | 
45 | O=C1NC(=S)NC(=O)C1=NNc1ccccc1C(=O)O [CBK262231] |  | 99.6
46 | O=C(O)CSc1nc2ccc([N+](=O)[O-])cc2s1 [CBK262232] | 88.4 | 
47 | COc1ccccc1/C=C1/S/C(=N/Cc2ccccc2)N(Cc2ccccc2)C1=O [CBK262234] | 99.3 | 
48 | O=[N+]([O-])c1cc(C(F)(F)F)ccc1N(CCO)CCO [CBK262238] | 94.9 | 
49 | COc1ccc(NC(=O)c2cnccn2)c(OC)c1 [CBK262240] | 105 | 
50 | O=S(=O)(Cc1ccccc1)NCc1ccccn1 [CBK262241] | 96.2 | 
51 | COc1ccc2oc(=O)c(C(=O)Nc3ccc(C(=O)O)cc3)cc2c1 [CBK262242] | 98.4 | 
52 | O=[N+]([O-])c1ccc(OCCCNCCO)cc1 [CBK262244] | 92.3 | 
53 | CCOC(=O)c1c(/N=C/c2cc(I)cc(I)c2O)sc2c1CCN(Cc1ccccc1)C2 [CBK262246] | 106 | 
54 | CC(C)(C)c1cc(/C=N/Nc2nc3ccccc3[nH]2)cc(C(C)(C)C)c1O [CBK262247] | 90.2 | 
55 | O=C(N/N=C/c1cccc(OC(=O)c2cccc(Br)c2)c1)c1ccncc1 [CBK262249] | 112 | 
56 | O=C1c2cc(S(=O)(=O)NCc3ccco3)ccc2-c2ccc(S(=O)(=O)NCc3ccco3)cc21 [CBK262250] | 98.5 | 
57 | CNc1nc2ccccc2n1CC(=O)c1ccccc1 [CBK262251B] | 96 | 
58 | CO/N=C(\C(=O)O)c1cn2cccnc2n1 [CBK262252] | 91.5 | 
59 | COc1ccc(NC(=O)C(=O)N/N=C/c2ccc(C(=O)O)cc2)cc1 [CBK262255] | 95.5 | 
60 | O=C(O)CCn1ncc2ccccc21 [CBK262257] | 89.8 | 
61 | CC(C)(c1ccc(Oc2ccc3c(c2)C(=O)N(c2nccs2)C3=O)cc1)c1ccc(Oc2ccc3c(c2)C(=O)N(c2nccs2)C3=O)cc1 [CBK262258] | 103 | 
62 | CN(C)c1ccc(/C=N/NC(=O)CSc2nnc(-c3ccccc3)n2-c2ccccc2)cc1 [CBK262263] | 90.2 | 
63 | COc1ccc(-c2nnc(SCC(=O)NN)n2-c2ccccc2)cc1OC [CBK262264] | 112 | 
